Consider 14 molecules from patent US20240298639A1 (priority 2021, published 2024).

Assay type in all cases: cell-based
For test [1], the system named is wheat scab fungi (Fusarium graminearum and Fusarium asiaticum). Description: organism not typed. The note with it: for inhibition at 0.125 µg/mL / inhibition at 0.25 µg/mL / inhibition at 0.5 µg/mL: read-out: Mycelial growth inhibition rate (MGIR); for inhibition at 0.5 µg/mL: 0.5 mg/L.
The subject of test [2] is melon Fusarium wilt pathogen (Fusarium oxysporum). Description: microbe, parasite or virus in culture. The conditions noted are these: 1 mg/L; for inhibition at 1 µg/mL: Fusarium, read-out: Mycelial growth inhibition rate.
For test [3], the system named is banana Fusarium wilt pathogen (Fusarium oxysporum). The experiment in a line: microbe, parasite or virus in culture. The note with it: 1 mg/L; for inhibition at 1 µg/mL: Fusarium, read-out: Mycelial growth inhibition rate.
The test system of test [4] is rice bakanae disease pathogen (Fusarium moniliforme). Description: microbe, parasite or virus in culture. The note with it: 1 mg/L; for inhibition at 1 µg/mL: Fusarium verticillioides, read-out: Mycelial growth inhibition rate.

Consider `CCOC(=O)/C(C#N)=C(\N)c1ccc(N(C)CC)cc1` [Compound 8], for which the inhibition at 0.125 µg/mL in test [1] (0.125 mg/L) stood at 88.3 ± 4.5%. Besides, the inhibition at 0.25 µg/mL in test [1] (0.25 mg/L) was over 90%. Further, in test [1], the inhibition at 0.5 µg/mL was over 90%.
As to `CCCOC(=O)/C(C#N)=C(\N)c1ccc(N(C)C)cc1` [Compound 36], the inhibition at 0.125 µg/mL in test [1] (0.125 mg/L) worked out at 75.2 ± 3.3%. Besides, in test [1] (0.25 mg/L), the inhibition at 0.25 µg/mL was determined as 85.4 ± 3.9%. Further, the inhibition at 0.5 µg/mL in test [1] is over 90%.
With `CCOC(=O)/C(C#N)=C(\N)c1ccc(NC)cc1` [Compound 2], the inhibition at 0.125 µg/mL in test [1] (0.125 mg/L) is over 90%. The inhibition at 0.25 µg/mL in test [1] (0.25 mg/L) was over 90%. In addition, in test [1], the inhibition at 0.5 µg/mL is over 90%. Besides, the inhibition at 1 µg/mL in test [2], in test [3] and in test [4] was over 90% throughout.
Consider `CCOC(=O)/C(C#N)=C(\N)c1ccc(N2CCCC2)cc1` [Compound 16], for which, in test [1] (0.125 mg/L), the inhibition at 0.125 µg/mL turned out to be 82.3 ± 2.5%. Also, the inhibition at 0.25 µg/mL in test [1] (0.25 mg/L) is over 90%. Moreover, the inhibition at 0.5 µg/mL in test [1] was over 90%.
With `CCCOC(=O)/C(C#N)=C(\N)c1ccc(NC)cc1` [Compound 34], in test [1] (0.125 mg/L), the inhibition at 0.125 µg/mL is 74.1 ± 2.3%. For the same molecule, the inhibition at 0.25 µg/mL in test [1] (0.25 mg/L) was 84.9 ± 5.4%. Moreover, the inhibition at 0.5 µg/mL in test [1] was over 90%.
In the same order, the values of `CCOC(=O)/C(C#N)=C(\N)c1ccc(N)cc1` [Compound 1] are 65.5 ± 4.3%, 81.2 ± 6.3% and over 90%.
The like results for `CCCOC(=O)/C(C#N)=C(\N)c1ccc(N(CC)CC)cc1` [Compound 37] were, in that order, 73.9 ± 5.5%, 84.8 ± 7.1% and over 90%.
Turning to `CCNc1ccc(/C(N)=C(\C#N)C(=O)OCC)cc1` [Compound 3], the inhibition at 0.125 µg/mL in test [1] (0.125 mg/L) was over 90%. Moreover, in test [1] (0.25 mg/L), the inhibition at 0.25 µg/mL was over 90%. For the same molecule, the inhibition at 0.5 µg/mL in test [1] is over 90%. Also, the inhibition at 1 µg/mL in test [2], in test [3] and in test [4] was over 90% in each case.
As for `CCCOC(=O)/C(C#N)=C(\N)c1ccc(NCC)cc1` [Compound 35], the inhibition at 0.125 µg/mL in test [1] (0.125 mg/L) amounted to 76.6 ± 3.3%. Moreover, the inhibition at 0.25 µg/mL in test [1] (0.25 mg/L) stood at 85.8 ± 1.8%. Besides, the inhibition at 0.5 µg/mL in test [1] is over 90%.
As to `CCOC(=O)/C(C#N)=C(\N)c1ccc(N(CC)CC)cc1` [Compound 11], the inhibition at 0.125 µg/mL in test [1] (0.125 mg/L) is over 90%. Further, in test [1] (0.25 mg/L), the inhibition at 0.25 µg/mL is over 90%. The inhibition at 0.5 µg/mL in test [1] is over 90%. Moreover, the inhibition at 1 µg/mL in test [2], in test [3] and in test [4] was over 90% throughout.
As to phenamacril [reference compound], the figures for the “Mycelial growth inhibition rate (MGIR)” value in test [1] (0.125 mg/L) and in test [1] (0.25 mg/L) were 21.1 ± 2.3% and 36.1 ± 5.0%, respectively. Moreover, the “Mycelial growth inhibition rate” value in test [2], in test [3] and in test [4] was 25% throughout.
Turning to `CCOC(=O)/C(C#N)=C(\N)c1ccc(N2CCCCC2)cc1` [Compound 17], the inhibition at 0.125 µg/mL in test [1] (0.125 mg/L) amounted to 81.4 ± 5.5%. Further, in test [1] (0.25 mg/L), the inhibition at 0.25 µg/mL is over 90%. Besides, the inhibition at 0.5 µg/mL in test [1] was over 90%.
As for `CCN(CC)c1ccc(/C(N)=C(\C#N)C(=O)OC)cc1` [Compound 28], in test [1] (0.125 mg/L), the inhibition at 0.125 µg/mL is 74.4 ± 3.8%. The inhibition at 0.25 µg/mL in test [1] (0.25 mg/L) stood at 85.3 ± 3.3%. Also, the inhibition at 0.5 µg/mL in test [1] is over 90%.
The like results for `CCOC(=O)/C(C#N)=C(\N)c1ccc(N2CCC2)cc1` [Compound 15] were, in that order, 84.2 ± 4.5%, over 90% and over 90%.
